Source: patent publication US20230148070A1, “AMINO ACID DERIVATIVES AND THEIR USE AS FLAVOR MODIFIERS” (Firmenich SA, priority 2020, published 2023)

How the values were obtained:
[1] = Sensory Testing 2: Chicken Soup (expert panel, salt, umami, meaty, kokumi); format: in vivo; conditions: 10 ppm, panel of 8 experts, score on scale -5 to 5, 0 = reference water solution with 1.26% Chicken base, 0.7% NaCl, 0.04% MSG; for Mouth-coating / Round / Thick: kokumi
Description: Each of Compound 103, Compound 104 and Compound 109 was tested for flavor, taste and mouthfeel properties, particularly kokumi. A panel of 8 experts evaluated the samples of each test compound at 10 ppm for salt, umami, meaty, and kokumi (mouthcoating, round and thick) properties, and scored the solutions on a scale ranging from −5 to 5 (with −5 denoting a strong masking effect, and 5 denoting a strong enhancing effect, and 0 representing the intensity of a reference water solution containing 1.26% Chicken base, 0.7% NaCl, and 0.04% MSG, respectively).

[2] = Sensory Testing 1: Savory Model (trained panel, umami and saltiness); format: in vivo; conditions: 10 ppm; panel of 20-22 trained panelists; score on scale -5 (strong masking) to 5 (strong enhancing), 0 = reference water solution with 0.25% NaCl and 0.05% MSG
Description: Each of Compound 101, Compound 102, Compound 103, Compound 104, Compound 105, Compound 106, Compound 107, Compound 108 and Compound 109 was tested for taste properties, particularly umami and saltiness. A panel of 20-22 trained panelists evaluated the samples of each test compound at 10 ppm for umami taste properties and saltiness taste properties, and scored the solutions on a scale ranging from −5 to 5 (with −5 denoting a strong masking effect, and 5 denoting a strong enhancing effect, and 0 representing the intensity of a reference water solution containing 0.25% sodium chloride (NaCl) and 0.05% monosodium glutamate (MSG), respectively).

NC(CCC(=O)NCCCC(=O)O)C(=O)O (stereo not drawn) [Compound 103]
Meaty [1]: 0.67
Saltiness [1]: 0.67
Umami [1]: 0.83
Mouth-coating [1]: 1.08
Round [1]: 0.92
Thick [1]: 0.92
Saltiness [2]: 0.64
Umami [2]: 0.73

C[C@@H](CNC(=O)CC[C@H](N)C(=O)O)C(=O)O [Compound 109]
Meaty [1]: 0
Saltiness [1]: 0.92
Umami [1]: 0.58
Mouth-coating [1]: 0.83
Round [1]: 0.58
Thick [1]: 0.83
Saltiness [2]: 0.58
Umami [2]: 0.50

COc1ccc(CNC(=O)CCC(N)C(=O)O)cc1 (stereo not drawn) [Compound 105]
Saltiness [2]: 0.38
Umami [2]: 0.76

N=C(N)NCCCC(NC(=O)CCC(=O)O)C(=O)O (stereo not drawn) [Compound 107]
Saltiness [2]: 0.61
Umami [2]: 0.66

N=C(N)NCCCC(NC(=O)c1ccc(O)cc1)C(=O)O (stereo not drawn) [Compound 108]
Saltiness [2]: 0.49
Umami [2]: 0.47

NC(CCC(=O)NCCc1ccc(O)cc1)C(=O)O (stereo not drawn) [Compound 106]
Saltiness [2]: 0.33
Umami [2]: 0.51

C[C@H](CNC(=O)CC[C@H](N)C(=O)O)C(=O)O [Compound 104]
Meaty [1]: 0.42
Saltiness [1]: 0.75
Umami [1]: 0.75
Mouth-coating [1]: 0.75
Round [1]: 0.50
Thick [1]: 0.58
Saltiness [2]: 0.96
Umami [2]: 0.32

CC(C)NC(=O)CCC(N)C(=O)O (stereo not drawn) [Compound 101]
Saltiness [2]: 0.79
Umami [2]: 0.06

NC(CCC(=O)NCCO)C(=O)O (stereo not drawn) [Compound 102]
Saltiness [2]: 0.44
Umami [2]: 0.46
